The nature of data set [1]: Brain to plasma ratio in rat. It counts as in vivo. As to conditions: male, Sprague-Dawley, brain and plasma, intravenous, 0.2 mg/kg, rat (SD); for Kp at 15 min: brain/plasma; for Kp uu at 15 min: unbound brain/unbound plasma. The procedure: where Qh (hepatic blood flow, mL/min/kg) is 21 (human) or 70 (rat).
LC/MS/MS Bioanalysis of Samples from Plasma Protein Binding and Intrinsic Clearance […]
Samples were analyzed on a Thermo Electron TSQ Quantum Ultra triple quad mass spectrometer (San Jose, CA) via electrospray ionization (ESI) with two Themo Electron Accella pumps (San Jose, CA), and a Leap Technologies CTC PAL autosampler (Carrboro, NC). Analytes were separated by gradient elution on a dual column system with two Thermo Hypersil Gold (2.1 x 30 mm, 1.9 µm) columns (San Jose, CA) thermostated at 40 °C. HPLC mobile phase A was 0.1% formic acid in water and mobile phase B was 0.1% formic acid in acetonitrile. The gradient started […]
for 0.2 min; returned to 10% B in 0.1 min. The total run time was 1.3 min and the HPLC flow rate was 0.8 mL/min. While pump 1 ran the gradient method, pump 2 equilibrated the alternate column isocratically at 10% B. Compound optimization, data collection, and processing was performed using Thermo Electron's QuickQuan software (v2.3) and Xcalibur (v2.0.7 SP1).
In vivo DMPK experimental:
Determination of brain to plasma ratio:
All animal study procedures were approved by the Institutional Animal Care and Use Committee and were conducted in accordance with the National Institutes of Health regulations of animal care covered in Principles of Laboratory Animal Care (National Institutes of Health). All rats were fasted overnight prior to testing.
For determination of the brain over plasma ratio (Kp), compounds were formulated in 8% ethanol, 32% PEG400 and 60% DMSO (v/v/v) and administered as a single 0.2 mg/kg IV dose (1 mL/kg) to male, Sprague Dawley rats (n = 1) via injection into a surgically-implanted jugular vein catheter. At 15 min post dosing, blood sample was collected into chilled, K2EDTA anticoagulant-fortified tube and immediately placed on wet ice. The blood sample was then centrifuged (1700 rcf, 5 minutes, 4 °C) to obtain plasma sample. At the same post-administration time point, whole brain sample was obtained by rapid dissection, rinsed with PBS, and immediately frozen in individual tissue collection box (dry ice). All brain and plasma samples were stored at -80 °C until […]
Sample Analysis: Concentrations in plasma and brain homogenates were quantified by liquid chromatography tandem mass spectrometry (LC-MS/MS). Whole brains were homogenized in 3 mL of 70:30 IPA:water in a mini bead beater for 3 min, and centrifuged at 3,500 g for 5 min. 5 uL of the supernatant was diluted in 15 uL of blank plasma for quantification of the analytes. Plasma samples were centrifuged at 3,500 g for 5 min. A standard curve was generated by diluting the analytes DMSO stocks with blank plasma to obtain a final concentration of 10,000 ng/ml followed by a serial dilution down to 0.5 ng/ml. Quality controls were generated by a serial dilution of the 5,000 ng/ml standard curve solution in blank plasma to obtain 3 concentrations of 500, 50, and 5 ng/ml. 20 uL of brain diluted in plasma, plasma, blank plasma, standard curve and QC samples were loaded in a V-bottom 96-well plate. 120 uL of acetonitrile containing 0.05 uM carbamazepine (internal standard) was added to each well and the plate was centrifuged at 3,500 g for 5 min. 60 uL of the supernatant of each well (protein free) was transferred to a new 96-well plate containing 60 uL of water. The plates were sealed for analysis by LC-MS/MS.
Plasma and brain tissue samples originating from in vivo studies were analyzed by electrospray ionization using an AB Sciex Q-TRAP 5500 (Foster City, CA) that was coupled to a Shimadzu LC-20AD pump (Columbia, MD) and a Leap Technologies CTC PAL auto-sampler (Carrboro, NC). Analytes were separated by gradient elution using a C18 column (3 x 50 mm, 3 mm; Fortis Technologies Ltd, Cheshire, UK) that was thermostated at 40 °C. HPLC mobile phase A was 0.1% formic acid in water (pH unadjusted); mobile phase B was 0.1% formic acid in acetonitrile (pH […]

Data set [2] deals with T1, M1 (Homo sapiens, UniProt P11229).
T1 construct: expressed in transfected cells
T1 sequence (P11229 1-460): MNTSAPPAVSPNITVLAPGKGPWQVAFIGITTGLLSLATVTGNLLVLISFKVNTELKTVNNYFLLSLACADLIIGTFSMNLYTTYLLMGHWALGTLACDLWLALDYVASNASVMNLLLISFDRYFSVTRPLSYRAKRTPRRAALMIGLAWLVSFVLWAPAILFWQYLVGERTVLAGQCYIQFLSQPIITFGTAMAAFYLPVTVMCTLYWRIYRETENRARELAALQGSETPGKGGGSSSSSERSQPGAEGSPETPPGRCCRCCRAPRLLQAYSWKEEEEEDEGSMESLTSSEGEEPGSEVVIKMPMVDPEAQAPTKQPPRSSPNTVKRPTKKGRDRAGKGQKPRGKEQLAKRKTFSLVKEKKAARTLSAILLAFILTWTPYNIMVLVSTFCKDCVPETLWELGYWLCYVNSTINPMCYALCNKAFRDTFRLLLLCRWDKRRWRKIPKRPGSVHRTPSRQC
Nature of the data set: Calcium mobilization, human M1 CHO cells (agonist and PAM modes). The format is cell-based. The following applies: for M1 agonism: in words. Background: A change in cytosolic calcium serves as a functional read-out for many receptors and channels.

Where [3] appears, read: PAM mode, read-out: hM1 PAM EC50.
Where [4] appears, read: agonist mode, read-out: hM1 Agonist EC50.

Like-named read-outs stand apart in the source and are kept apart here.

Usually Kp stands for tissue or fluid exposure divided by exposure in the circulation. As for `Cn1cc2c(-c3cc(F)c(CN4Cc5ncccc5C4=O)c(F)c3)cccc2n1` [compound 1], in data set [1], the Kp at 15 min came out at 0.77 and the Kp uu at 15 min turned out to be 1.3. Besides, in data set [2], the “hM1 PAM AChmax (%)” value is reported as 80%. Moreover, the EC50 in data set [2] (setting [3]) was determined as 492 nM. In addition, in data set [2] (setting [4]), the EC50 was above 30000 nM. The “hM1 PAM AChmax (%) (pEC50 line)” value in data set [2] (mean ± spread) is given as 71±9.9%.
For the molecule `[2H]C1([2H])c2ncccc2C(=O)N1Cc1c(F)cc(-c2cccc3nn(C)cc23)cc1F` [compound 3], in data set [1], the Kp at 15 min is 0.63 and the Kp uu at 15 min amounted to 0.57. Besides, in data set [2], the “hM1 PAM AChmax (%)” value is 81% and the M1 agonism entry was “minimal M1 agonism”. In data set [2] (setting [3]), the EC50 is 624 nM. Moreover, in data set [2] (setting [4]), the EC50 is above 30000 nM. Also, in data set [2] (mean ± spread), the “hM1 PAM AChmax (%) (pEC50 line)” value came out at 78±2.2%.
For the molecule `[2H]C1([2H])c2ncccc2C(=O)N1Cc1c(F)cc(-c2cccc3nn(C([2H])([2H])[2H])cc23)cc1F` [compound 5], the concentration ratio (Kp) at 15 min in data set [1] was 1.1. Further, the Kp uu at 15 min in data set [1] was determined as 1.5. Further, the “hM1 PAM AChmax (%)” value in data set [2] was 80%. Moreover, the EC50 in data set [2] (setting [3]) was 192 nM; in data set [2] (setting [4]), above 30000 nM; in data set [2] (mean ± spread, n in cell, read-out: hM1 PAM pEC50 (converted)), 182 nM. Further, in data set [2], the M1 agonism result was “minimal M1 agonism”. The “hM1 PAM AChmax (%) (pEC50 line)” value in data set [2] (mean ± spread) turned out to be 82±1.8%.

(Values after publication PMC12006963, “Application of Deuterium in an M1 Positive Allosteric Modulator Back-Up Program: The Discovery of VU6045422” (ACS Chemical Neuroscience, 2025).)
